From ChEMBL document CHEMBL1157868, “Synthesis and antiviral activity of an imidazo[1,2-a]pyrrolo[2,3-c]pyridine series against the bovine viral diarrhea virus” (Eur J Med Chem, 2010)

Assays:
[1] = system: Bovine viral diarrhea virus 1; test: Antiviral activity against Bovine viral diarrhea virus infected in MDBK cells assessed as protection against virus-induced cytopathogenicity after 5 days; format: functional, organism-based; details: Bovine viral diarrhea virus isolates and strains, 120 h
[2] = Cytotoxicity against MDBK cells; format: cell-based, Bos taurus; details: cattle
[3] = Selectivity index, CC50 for MDBK cells to EC50 for Bovine viral diarrhea virus; format: toxicity, cell-based; details: cattle, read-out: Ratio CC50/EC50

| SMILES | EC50 [1] | CC50 [2] | selectivity ratio [3] |
| --- | --- | --- | --- |
| CCOC(=O)c1cc2c(ccn3cc(C(OCC)OCC)nc23)[nH]1 | 2.1 µM | 99.2 µM | 46.6 |
| CCOC(=O)c1cc2c(ccn3cc(CCl)nc23)[nH]1 | 47.6 µM | > 100 µM | > 2.1 |
| CCOC(=O)c1cc2c(ccn3c(Br)c(C)nc23)[nH]1 | 78.9 µM | > 100 µM | > 1.3 |
| COC(=O)c1cc2c(ccn3cc(C)nc23)n1C | 1.7 µM | > 100 µM | > 60.6 |
| CCOC(=O)c1cc2c(ccn3cc(-c4ccccc4)nc23)[nH]1 | 3.7 µM | > 100 µM | > 27.1 |
| CCOC(=O)c1cc2c(ccn3cc(CO)nc23)[nH]1 | 53.8 µM | > 100 µM | > 1.9 |
| COC(=O)c1cc2c(ccn3cc(C)nc23)[nH]1 | 1.1 µM | > 100 µM | > 87.2 |
| CCOC(=O)c1cc2c(ccn3cc(C=O)nc23)[nH]1 | 21.8 µM | > 100 µM | > 4.6 |
| CCOC(=O)c1cc2c(ccn3cc(-c4cccc(OC)c4)nc23)[nH]1 | 0.4 µM | 31.1 µM | 71 |
| Cc1cn2ccc3[nH]c(CO)cc3c2n1 | 43.9 µM | > 100 µM | > 2.3 |
| CCOC(=O)c1cc2c(ccn3cc(Br)nc23)[nH]1 | 13.1 µM | > 100 µM | > 7.6 |
| CCOC(=O)c1cc2c(ccn3cc(C)nc23)[nH]1 | 2.1 µM | > 100 µM | > 47.6 |
| CCOC(=O)c1cc2c(ccn3c(Br)cnc23)[nH]1 | 14.1 µM | > 100 µM | > 7.1 |
| CCOC(=O)c1cc2c(ccn3cc(C(C)C)nc23)[nH]1 | 23.1 µM | > 100 µM | > 4.3 |
| CCOC(=O)c1cc2c(ccn3cc(CN(C)C)nc23)[nH]1 | 46.5 µM | > 100 µM | > 2.2 |
| CCOC(=O)c1cc2c(ccn3cc(C(C)(C)C)nc23)[nH]1 | 50.3 µM | > 100 µM | > 2 |
| CCOC(=O)c1cc2c(ccn3c([N+](=O)[O-])c(C)nc23)[nH]1 | 64.8 µM | > 100 µM | > 1.5 |
| CCOC(=O)c1cc2c(ccn3cc(C(F)(F)F)nc23)[nH]1 | 12.8 µM | > 100 µM | > 7.8 |
| CCCCOC(=O)c1cc2c(ccn3cc(C)nc23)[nH]1 | 2.1 µM | 89.8 µM | 41.8 |
| CCOC(=O)c1cc2c(ccn3cc(C)nc23)n1C | 5.6 µM | > 100 µM | > 17.9 |
| Cc1cn2ccc3[nH]c(C(=O)O)cc3c2n1 | 5.1 µM | > 100 µM | > 19.6 |
| CCOC(=O)c1cc2c(ccn3ccnc23)[nH]1 | 5 µM | > 100 µM | > 20 |
